Measured values reported in patent US4638070A, “Heterocyclic amino-alcohol derivatives” (Continental Pharma, priority 1980, dated 1987).

How the values were obtained:
[1] = system: guinea-pig ileum (acetylcholine contractions); experiment: Antispasmodic activity in vitro, contractions caused by acetylcholine; details: added 15 minutes before spasm-producing agent
Experimental: (§1) (4) The antispasmodic activity was measured in vitro, on guinea-pig ileum, the contractions of which were caused by histammne (Hist.), acetylcholine (Achol) or barium chloride (BaCl2). The tested products were added to perfusion bath 15 minutes before the spasm-producing agents.
(§2) The dose is given in micograms (μg) per ml of bath causing complete spasm inhibition.

[2] = system: unanaesthetized, hypertension-suffering rat; experiment: Antihypertensive activity (systolic arterial pressure), oral; format: in vivo; details: 60 mg/kg, hypertensive rat, 3 hours
Experimental: (2) The antihypertensive activity was measured on unanaesthetized, hypertension-suffering rat. The tested substances were orally given at a rate of 60 mg/kg. The systolic arterial pressure was measured every 30 minutes for 2 hours before and for 3 hours after the tested product was given. Results are expressed as follows: […]
O: no reduction of arterial pressure.
+: reduction lower than 10 mm Hg.
++: reduction of 10 to 20 mm Hg.
+++: reduction higher than 20 mm Hg.

[3] = Acute toxicity, oral, LD50 (Litchfield and Wilcoxon); details: mouse, in vivo, fasted male mice, confidence limits p=95% in brackets
Experimental: (1) The acute toxicity was determined on fasted male mice. The tested substances were orally administered and LD50 values (lethal dose for 50% of animals) were calculated according to the method of Litchfield and Wilcoxon (J. Pharmacol. exp. Ther. 96, 94-113, 1949). These LD50 values are given in mg/kg and also, when possible, with their confidence limits for p=95%.

femoral artery = experiment: Vasodilator activity, femoral artery (technique of perfused paw); format: in vivo; set-up: key: O: no action; +: slight activity; ++: effect equal to half the effect of papaverine; +++: effect equal to that of papaverine; ++++: effect higher than that of papaverine; details: intra-arterial, 30 mg/kg, anaesthetized dog, vs papaverine at same dose
Experimental: (3) The vasodilator activity was measured at the level of femoral artery on anaesthetized dog (technique of perfused paw). The tested substances were given intra-arterially at the rate of 30 mg/kg. Results are expressed with respect to papaverine tested at the same dose.
++: effect equal to half the effect of papaverine.
+++: effect equal to that of papaverine.
++++: effect higher than that of papaverine.

[4] = system: guinea-pig ileum (histamine contractions); experiment: Antispasmodic activity in vitro, contractions caused by histamine; details: added 15 minutes before spasm-producing agent
Experimental: as §1, §2

Compound	ANTISPASMODIC ACTIVITY ACHOL (dose causing complete spasm inhibition) [1]	ANTIHYPERTENSIVE ACTIVITY [2]	LD50 [3]	VASODILATOR ACTIVITY (femoral artery)	ANTISPASMODIC ACTIVITY HIST. (dose causing complete spasm inhibition) [4]
CC(NCCCc1ccc(Cl)cc1)C(O)c1ccc2c(c1)CCCS2 (stereo not drawn) [No 78]	1.7 μg per ml	+++ (reduction higher than 20 mm Hg)	725 mg/kg	++++	0.8 μg per ml
CC(NCCCSc1ccccc1)C(O)c1ccc2c(c1)CCS2 (stereo not drawn) [No 60]	1.7 μg per ml	+++ (reduction higher than 20 mm Hg)	> 2000 mg/kg	+++	3.3 μg per ml
CC(NCCCCc1ccc(Cl)cc1)C(O)c1ccc2c(c1)CCC2 (stereo not drawn) [No 167]	0.8 μg per ml	+++ (reduction higher than 20 mm Hg)	~270 mg/kg	+++	0.8 μg per ml
CC1Cc2cc(C(O)C(C)NCCOCc3ccccc3)ccc2S1 (stereo not drawn) [No 120]		++ (reduction of 10 to 20 mm Hg)	~1450 mg/kg	+++	0.8 μg per ml
CC1Cc2cc(C(O)C(C)NCCOc3ccc(Cl)cc3)ccc2S1 (stereo not drawn) [No 58]	1.7 μg per ml	+++ (reduction higher than 20 mm Hg)	> 4000 mg/kg	+++	1.7 μg per ml
CC1Cc2cc(C(O)C(C)NCCCC(=O)c3ccc(F)cc3)ccc2O1 (stereo not drawn) [No 105]	3.3 μg per ml	+++ (reduction higher than 20 mm Hg)	~360 mg/kg	+++	3.3 μg per ml
CCC(=O)c1ccc(OCCNC(C)C(O)c2ccc3c(c2)CC(C)S3)cc1 (stereo not drawn) [No 116]	3.3 μg per ml	++ (reduction of 10 to 20 mm Hg)	> 4000 mg/kg	++	0.17 μg per ml
CC1Cc2cc(C(O)C(C)NCCSc3ccccc3)ccc2S1 (stereo not drawn) [No 106]	1.7 μg per ml	++ (reduction of 10 to 20 mm Hg)	> 4000 mg/kg	+++	1.7 μg per ml
CCCCSCCCNC(C)C(O)c1ccc2c(c1)CCC2 (stereo not drawn) [No 178]		++ (reduction of 10 to 20 mm Hg)	870 mg/kg	++++	1.7 μg per ml
CC(NCCCc1ccccc1)C(O)c1ccc2c(c1)CCS2 (stereo not drawn) [No 57]	1.7 μg per ml	++ (reduction of 10 to 20 mm Hg)	> 2000 mg/kg	+++	1.7 μg per ml
CC(NCCCC(=O)c1ccc(F)cc1)C(O)c1ccc2c(c1)CCS2 (stereo not drawn) [No 111]	0.8 μg per ml	++ (reduction of 10 to 20 mm Hg)	~700 mg/kg	+++	0.3 μg per ml
CC1Cc2cc(C(O)C(C)NCCOc3ccccc3)ccc2O1 (stereo not drawn) [No 89]	8.3 μg per ml	+++ (reduction higher than 20 mm Hg)	550 mg/kg	+++	8.3 μg per ml
CC(NCCCCc1ccccc1)C(O)c1ccc2c(c1)CCC2 (stereo not drawn) [No 163]	0.8 μg per ml	+++ (reduction higher than 20 mm Hg)	800 mg/kg	++	1.7 μg per ml
CC(NCCCOc1ccccc1)C(O)c1ccc2c(c1)CCCS2 (stereo not drawn) [No 75]	1.7 μg per ml	+++ (reduction higher than 20 mm Hg)	> 4000 mg/kg	+++	0.8 μg per ml
CCCCCCCCNC(C)C(O)c1ccc2c(c1)CCC2 (stereo not drawn) [No 164]	0.8 μg per ml	++ (reduction of 10 to 20 mm Hg)	1750 mg/kg	+++	0.8 μg per ml
CC(NCCOc1ccccc1)C(O)c1ccc2c(c1)SCCS2 (stereo not drawn) [No 104]	16.7 μg per ml	+ ++	> 4000 mg/kg		8.3 μg per ml
CC(NCCCCc1ccccc1)C(OC(=O)C1CCCC1)c1ccc2c(c1)CCS2 (stereo not drawn) [No 137]		+++ (reduction higher than 20 mm Hg)	~1750 mg/kg		

Compound	ANTISPASMODIC ACTIVITY ACHOL (dose causing complete spasm inhibition) [1]	ANTIHYPERTENSIVE ACTIVITY [2]	LD50 [3]	VASODILATOR ACTIVITY (femoral artery)	ANTISPASMODIC ACTIVITY HIST. (dose causing complete spasm inhibition) [4]
CC(NCCCc1ccccc1)C(O)c1ccc2c(c1)CCC2 (stereo not drawn) [No 165]	1.7 μg per ml	+++ (reduction higher than 20 mm Hg)	3800 mg/kg	+++	1.7 μg per ml
CC1Cc2cc(C(O)C(C)NCCOc3ccc(Cl)cc3)ccc2O1 (stereo not drawn) [No 84]	3.3 μg per ml	+++ (reduction higher than 20 mm Hg)	1200 mg/kg	+++	8.3 μg per ml
CCCCCCCCNC(C)C(OC(=O)CC)c1ccc2c(c1)CCCS2 (stereo not drawn) [No 131]		+ (reduction lower than 10 mm Hg)	> 4000 mg/kg		
CCCCCCCCNC(C)C(OC(=O)CCC)c1ccc2c(c1)CCCS2 (stereo not drawn) [No 134]		+++ (reduction higher than 20 mm Hg)	> 4000 mg/kg		
Cc1ccc(CCCCNC(C)C(O)c2ccc3c(c2)CCS3)cc1 (stereo not drawn) [No 32]	1.7 μg per ml	+++ (reduction higher than 20 mm Hg)	4000 mg/kg		0.8 μg per ml
CC1CCc2cc(C(O)C(C)NCCCCc3ccccc3)ccc2S1 (stereo not drawn) [No 5, 1-(2-methyl-6-thiochromanyl)-2-(4-phenylbutylamino)-1-propanol]	3.3 μg per ml	++ (reduction of 10 to 20 mm Hg)	3600 mg/kg	++++	
C=CCCCCCCCCCNC(C)C(O)c1ccc2c(c1)CCS2 (stereo not drawn) [No 92]	16.7 μg per ml	++ (reduction of 10 to 20 mm Hg)	> 4000 mg/kg		16.7 μg per ml
CC(NCCOc1ccccc1)C(O)c1ccc2c(c1)SCCO2 (stereo not drawn) [No 123]		+++ (reduction higher than 20 mm Hg)	> 4000 mg/kg	++++	0.8 μg per ml
CC(NCCCCc1ccccc1)C(OC(=O)C1CCCCC1)c1ccc2c(c1)CCS2 (stereo not drawn) [No 138]		+++ (reduction higher than 20 mm Hg)	> 4000 mg/kg		
CC(NCCCCc1ccccc1)C(O)c1ccc2c(c1)SCCO2 (stereo not drawn) [No 122]		+++ (reduction higher than 20 mm Hg)	1650 mg/kg	++++	0.3 μg per ml
CCCCCCCC(=O)OC(c1ccc2c(c1)CCS2)C(C)NCCCCc1ccccc1 (stereo not drawn) [No 133]		+++ (reduction higher than 20 mm Hg)	2600 mg/kg		
CC(NCCc1ccccc1)C(O)c1ccc2c(c1)CCS2 (stereo not drawn) [No 6]	3.3 μg per ml	+ (reduction lower than 10 mm Hg)	< 500 mg/kg	+++	
CCC(NCCOc1ccccc1)C(O)c1ccc2c(c1)CCS2 (stereo not drawn) [No 126]		+++ (reduction higher than 20 mm Hg)	> 4000 mg/kg		
COCCOCCCNC(C)C(O)c1ccc2c(c1)CCS2 (stereo not drawn) [No 129]		+++ (reduction higher than 20 mm Hg)	250 mg/kg		
COCCOCCCNC(C)C(O)c1ccc2c(c1)CCC2 (stereo not drawn) [No 179]		+++ (reduction higher than 20 mm Hg)	250 mg/kg		
CCCCCCCCCCCCCCNC(C)C(O)c1ccc2c(c1)CCCS2 (stereo not drawn) [No 76]		+ (reduction lower than 10 mm Hg)	> 4000 mg/kg		
